Measured values as given in PMC4309423, “Total synthesis of periploside A, a unique pregnane hexasaccharide with potent immunosuppressive effects” (Nature Communications, 2015).

What was measured:
[1] = Cytotoxicity assay (MTT) on fresh spleen cells; type: cell-based, mice; conditions: BALB/C, fresh spleen cells (T-lymphocytes); T-lymphocyte (mouse spleen cells), 48 h, MTT
Protocol: (§1) Supplementary Figure 62. Inhibition of the growth of T-lymphocytes by synthetic compounds 1, 31, and 41-43. […]
(§2) Bioassay for the immunosuppressive activities17
(§3) Preparation of spleen cells from mice
(§4) BALB/C mice were sacrificed and spleens were removed aseptically. A single cell suspension was prepared after cell debris and clumps were removed. Erythrocytes were lysed using ammonium chloride buffer solution. The isolated lymphocytes were washed 3 times with PBS containing 2% FBS, and were re-suspended in RPMI 1640 medium at the indicated concentration.
(§5) Fresh spleen cells ([…]) were cultured in 96-well flat plates with 200 µL of RPMI 1640 media containing 10% FBS, 100 U/mL penicillin and 100 µg/mL streptomycin in a humidified, 37 °C, 5% CO2-containing incubator for 48 h, in the presence or absence of various concentrations of the compounds. 18 µL of MTT (5 mg/mL) was added to each well at the final 5 h culture. Then 90 µ L of lysis buffer (10% SDS, 50% DMF, pH 7.2) was added to each well for 6–7 h and the absorbance values at 570 nm were read by microplate reader (Bio-Rad, Model 550). […]

[2] = system: ConA-induced T-lymphocyte proliferation (spleen cells from BALB/C mice); test: T cell function assay: ConA-induced T-lymphocyte proliferation ([3H]-thymidine uptake); type: cell-based; conditions: for IC50: Mus musculus, ConA (5 μg/mL)-induced T-lymphocyte proliferation, 48 h, [3H]-thymidine uptake
Protocol: Supplementary Figure 63. Inhibition of concanavalin A (ConA)-induced
T-lymphocyte proliferation by synthetic compounds 1, 31, and 41-43.
as §2, §3
as §4, with “concentration. […]” for “concentration.”
1 x 10^6 of fresh spleen cells were cultured for 48 h at the same conditions as mentioned above. The cultures were stimulated with 5 µg/mL of concanavalin A (ConA) to induce T cells proliferative responses. The compounds were added to cultures with indicated concentrations to test their bioactivities. Proliferation was assessed in terms of uptake of [3H]-thymidine during last 8 h culture pulsing with 25 µCi of [3H]-thymidine for each well, and then cells were harvested onto glass fiber filters by a Basic 96 harvester. The incorporated radioactivity was counted by a liquid scintillation counter (1540 MicroBeta Trilux, Perkin–Elmer Life Sciences).

[3] = system: mice models; parameters: method as in PMID 16204471, PMID 16751252; conditions: cited from earlier work
[4] = system: T-lymphocyte (spleen cells from BALB/C mice); test: Cytotoxicity assay (MTT) on fresh spleen cells; type: cell-based; conditions: synthetic vs natural periploside A
Protocol: as §1, §2, §3, §4, §5

[5] = system: T cell; parameters: method as in PMID 18835000, PMID 21843896; conditions: toxicity; natural product; cited from earlier work
[6] = system: ConA-induced T cell proliferation; parameters: method as in PMID 18835000, PMID 21843896; conditions: natural product, cited from earlier work

**Q.** With `CO[C@@H]1C[C@]2(OCO[C@@H]3C[C@@H](O[C@@H](C)[C@@]4(O)CCC5C6CC=C7C[C@@H](O)CC[C@]7(C)C6CC[C@@]54C)O[C@H](C)[C@H]3O2)O[C@H](C)[C@H]1O` (stereo partly shown) [Disaccharide 43] as the compound, how does the CC50 at 48 h [1] read?
**A.** 27.7 ± 6.61 µM

**Q.** What about the IC50 [2] of the same compound?
**A.** 3.7 ± 2.25 µM

**Q.** With `CO[C@H]1[C@@H](O)[C@@H](C)O[C@@H](O[C@H]2[C@@H](OC)C[C@H](O[C@H]3[C@@H](OC)C[C@H](O[C@H]4[C@@H](OC)C[C@H](O[C@@H]5[C@@H](C)O[C@]6(C[C@H]5OC)OCO[C@@H]5C[C@H](O[C@@H](C)[C@@]7(O)CCC8C9CC=C%10C[C@@H](O)CC[C@]%10(C)C9CC[C@@]87C)O[C@H](C)[C@H]5O6)O[C@@H]4C)O[C@@H]3C)O[C@@H]2C)[C@@H]1OC(C)=O` (stereo partly drawn) [C1′′-epi-periploside A (31), C1′′-epi-periploside A] as the compound, how does the CC50 at 48 h [1] read?
**A.** 1.58 ± 0.19 µM

**Q.** What about the IC50 [2] of the same compound?
**A.** 0.41 ± 0.15 µM

**Q.** What does the source list for `CO[C@@H]1C[C@]2(OCO[C@@H]3C[C@H](O[C@@H](C)[C@@]4(O)CCC5C6CC=C7C[C@@H](O)CC[C@]7(C)C6CC[C@@]54C)O[C@H](C)[C@H]3O2)O[C@H](C)[C@H]1O` (stereo partly shown) [Disaccharide 42]?
**A.** CC50 at 48 h [1]: 12.8 ± 0.52 µM; IC50 [2]: 6.2 ± 3.2 µM

**Q.** What does the source list for `CO[C@H]1[C@@H](O)[C@@H](C)O[C@@H](O[C@H]2[C@@H](OC)C[C@H](O[C@H]3[C@@H](OC)C[C@H](O[C@H]4[C@@H](OC)C[C@@H](O[C@@H]5[C@@H](C)O[C@@]6(C[C@H]5OC)OCO[C@@H]5C[C@H](O[C@@H](C)[C@@]7(O)CCC8C9CC=C%10C[C@@H](O)CC[C@]%10(C)C9CC[C@@]87C)O[C@H](C)[C@H]5O6)O[C@@H]4C)O[C@@H]3C)O[C@@H]2C)[C@@H]1OC(C)=O` (stereo partly drawn) [C1′′′-epi-periploside A (41), C1′′′-epi-periploside A]?
**A.** CC50 at 48 h [1]: 11.4 ± 3.66 µM; IC50 [2]: 1.96 ± 0.43 µM

**Q.** With `COC1CC(OC2C(C)OC3(CC2OC)OCOC2CC(OC(C)C4(O)CCC5C6CC=C7CC(O)CCC7(C)C6CCC54C)OC(C)C2O3)OC(C)C1OC1CC(OC)C(OC2CC(OC)C(OC3OC(C)C(O)C(OC)C3OC(C)=O)C(C)O2)C(C)O1` (stereo not shown) [Periploside A (1), Periploside A] as the compound, how does the “immunosuppressive effects in mice models” value [3] read?
**A.** significant

**Q.** What about the “toxicity against T-lymphocyte compared with the natural product” value [4] of the same compound?
**A.** similar

**Q.** And the CC50 at 48 h [1]?
**A.** 2.1 ± 0.32 µM

**Q.** And the IC50 [2]?
**A.** 0.17 ± 0.04 µM

**Q.** What about the “activity against ConA-induced T-lymphocyte proliferation compared with the natural product” value ([2]; synthetic vs natural periploside A) of the same compound?
**A.** similar

**Q.** What about the CC50 [5] of the same compound?
**A.** 10.1 µM

**Q.** And the IC50 ([6]; ConA-induced T cell proliferation)?
**A.** 0.64 µM

**Q.** And the “inhibition of ConA-induced T cell proliferation compared with reference drugs” value [6]?
**A.** as potently as rapamycin and cyclosporin A
